Laboratory results taken from patent publication US20230310388A1, “Methods and Compositions for Treating Fungal Infections” (Neoculi Pty Ltd, priority 2020, published 2023).
Converted amounts (≈) assume the structure as drawn. “And” between values parts separate entries of the source, which are not always exact repeats. Equal values may be shown once.

Each compound was assayed on Candida albicans ATCC14053 (assay: Broth micro-dilution screen at 16 μg/mL and MIC (Example 9)). Settings: C. albicans ATCC14053; test range 0.25-64 μg/mL; duplicate.
Format: cell-based
Procedure: The antifungal activity of 201 NCL analogs against Candida albicans ATCC14053 in vitro was investigated. A broth micro-dilution method was used, according to CLSI guidelines as described. NCL analogs were dissolved in DMSO and originally screened at a single concentration of 16 μg/mL.

| SMILES | MIC |
| --- | --- |
| CCCCCC(=NNC(=N)NN=C(CCCCC)c1ccc(Cl)cc1)c1ccc(Cl)cc1 [NCL271] | 1 µg/mL (≈ 2.11 µM) |
| COc1ccc(C=CC=NNC(=N)NN=CC=Cc2ccc(OC)cc2)cc1.Cl [NCL150] | 1 µg/mL |
| CCCCCC(=NNC(=N)N)c1ccc(Cl)cc1.Cl [NCL254] | 8 µg/mL |
| Cl.N=C(NN=Cc1ccccc1O)NN=Cc1ccccc1O [NCL107] | 2 µg/mL and 4 µg/mL |
| Cl.N=C(NN=Cc1ccc(F)c(F)c1)NN=Cc1ccc(F)c(F)c1 [NCL123] | 1 µg/mL |
| Cl.N=C(NN=Cc1ccc(OC(F)(F)F)cc1)NN=Cc1ccc(OC(F)(F)F)cc1 [NCL160] | 1 µg/mL and 2 µg/mL |
| C#Cc1cccc(C=NNC(=N)NN=Cc2cccc(C#C)c2)c1.Cl [NCL126] | 4 µg/mL |
| Cl.N=C(NN=Cc1ccc(O)c(O)c1O)NN=Cc1ccc(O)c(O)c1O [NCL105] | 2 µg/mL and 4 µg/mL |
| Nc1nc(NN=Cc2ccc(O)c(O)c2)cc(NN=Cc2ccc(O)c(O)c2)n1 [NCL243] | 16 µg/mL and 32 µg/mL |
| Cl.N=C(NN=Cc1ccc(F)cc1)NN=Cc1ccc(F)cc1 [NCL021] | 0.5 µg/mL and 1 µg/mL |
| COc1ccc(C=NNC(=N)NN=Cc2ccc(OC)cc2)cc1.Cl [NCL027] | 8 µg/mL and 16 µg/mL |
| Cl.N=C(NN=Cc1ccc(Cl)cc1F)NN=Cc1ccc(Cl)cc1F [NCL216] | >64 µg/mL |
| Cl.N=C(NN=Cc1cccc(Cl)c1)NN=Cc1cccc(Cl)c1 [NCL054] | 4 µg/mL and 8 µg/mL |
| CC(=NNC(=N)NN=C(C)c1c[nH]c2ccccc12)c1c[nH]c2ccccc12 [NCL268] | 4 µg/mL (≈ 10.8 µM) |

Same assay, conditions: single concentration 16 μg/mL; Growth or No growth of C. albicans ATCC14053

| SMILES | Screen at 16 μg/mL |
| --- | --- |
| Cl.N=C(NN=Cc1cccc2nsnc12)NN=Cc1cccc2nsnc12 [NCL276] | Growth |
| Cl.N=C(N)NN=Cc1ccccc1C(F)(F)F [NCL042] | Growth |
| Cl.N=C(NN=Cc1ccc2ncccc2c1)NN=Cc1ccc2ncccc2c1 [NCL282] | No growth |
| Nc1nc(NN=Cc2ccc3ccccc3c2)cc(NN=Cc2ccc3ccccc3c2)n1 [NCL264] | Growth |
| CC(=NNc1cc(NN=C(C)c2ccc(Cl)cc2)ncn1)c1ccc(Cl)cc1.Cl [NCL185] | Growth |
| CCCCCC(=NNC(=N)NN=C(CCCCC)c1ccc(Cl)cc1)c1ccc(Cl)cc1 [NCL271] | No growth |
| CC(=NNC(=N)NN=C(C)c1ccccn1)c1ccccn1.Cl [NCL172] | Growth |
| CC(=NNC(=N)N)c1ccc(C(C)(C)C)cc1 [NCL231] | Growth |
| O=C(NN=Cc1ccc(Cl)cc1)NN=Cc1ccc(Cl)cc1 [NCL001] | Growth |
| Cl.N=C(NN=Cc1c(O)ccc2ccccc12)NN=Cc1c(O)ccc2ccccc12 [NCL124] | Growth |
| Cl.N=C(NN=Cc1cccc(C(=O)O)c1)NN=Cc1cccc(C(=O)O)c1 [NCL098] | Growth |
| COc1ccc(C=CC=NNC(=N)NN=CC=Cc2ccc(OC)cc2)cc1.Cl [NCL150] | No growth |
| COc1cc(C=NNC(=N)NN=Cc2cc(O)c(O)c(OC)c2)cc(O)c1O.Cl [NCL106] | Growth |
| CC(=NNc1cc(NN=C(C)c2ccc(Cl)cc2)ncn1)c1ccc(Cl)cc1 [NCL178] | Growth |
| Cc1cccc(C=NNC(=O)NN=Cc2cccc(C)c2)c1 [NCL019] | Growth |
| CC(Nc1cc(NC(C)c2ccccc2)nc(N)n1)c1ccccc1 (stereo not shown) [NCL184] | Growth |
| Cc1nc[nH]c1C=NNC(=N)N.Cl [NCL283] | Growth |
| COc1ccccc1C=NNC(=N)NN=Cc1ccccc1OC.Cl [NCL028] | Growth |
| CCCCCC(=NNC(=N)N)c1ccc(Cl)cc1.Cl [NCL254] | No growth |
| Cl.N=C(NN=Cc1cnccc1Cl)NN=Cc1cnccc1Cl [NCL175] | Growth |
| Nc1nc(NN=Cc2ccc(Br)cc2)nc(NN=Cc2ccc(Br)cc2)n1 [NCL212] | Growth |
| Cl.N=C(NN=Cc1ccccc1O)NN=Cc1ccccc1O [NCL107] | No growth |
| Cl.N=C(NN=Cc1ccc(Cl)cc1Cl)NN=Cc1ccc(Cl)cc1Cl [NCL127] | Growth |
| COc1cc(C=NNC(=N)NN=Cc2ccc(O)c(OC)c2)ccc1O.Cl [NCL117] | Growth |
| Cl.N=C(NN=Cc1ccncc1)NN=Cc1ccncc1 [NCL149] | Growth |

| SMILES | Screen at 16 μg/mL |
| --- | --- |
| Clc1ccc(C=NCCCN=Cc2ccc(Cl)cc2)cc1 [NCL252] | Growth |
| Cl.N=C(NN=CC=Cc1ccccc1)NN=CC=Cc1ccccc1 [NCL096] | Growth |
| Cl.N=C(NN=Cc1ccc(F)c(F)c1)NN=Cc1ccc(F)c(F)c1 [NCL123] | No growth |
| Cl.N=C(NN=Cc1cccc(C(F)(F)F)c1)NN=Cc1cccc(C(F)(F)F)c1 [NCL037] | Growth |
| Cl.N=C(NN=Cc1ccc(OC(F)(F)F)cc1)NN=Cc1ccc(OC(F)(F)F)cc1 [NCL160] | No growth |
| CCOCC(=NNC(=N)NN=C(COCC)c1ccc(Cl)cc1)c1ccc(Cl)cc1 [NCL275] | Growth |
| C#Cc1cccc(C=NNC(=N)NN=Cc2cccc(C#C)c2)c1.Cl [NCL126] | No growth |
| Cl.N=C(NN=Cc1ccc(O)cc1)NN=Cc1ccc(O)cc1 [NCL151] | Growth |
| CN(C)c1ccc(C=NNc2cc(NN=Cc3ccc(N(C)C)cc3)nc(N)n2)cc1 [NCL201] | Growth |
| Cl.N=C(NN=Cc1ccc(O)c(O)c1O)NN=Cc1ccc(O)c(O)c1O [NCL105] | No growth |
| O=C(NN=Cc1cccc(C(F)(F)F)c1)NN=Cc1cccc(C(F)(F)F)c1 [NCL011] | Growth |
| Cl.N=C(NN=Cc1ccccc1F)NN=Cc1ccccc1F [NCL022] | Growth |
| Cl.N=C(NN=Cc1ccc(O)c([N+](=O)[O-])c1)NN=Cc1ccc(O)c([N+](=O)[O-])c1 [NCL122] | Growth |
| Cl.N=C(N)N/N=C(\C(=O)O)c1ccccc1 [NCL192] | Growth |
| Nc1nc(NN=Cc2ccc(O)c(O)c2)cc(NN=Cc2ccc(O)c(O)c2)n1 [NCL243] | No growth |
| CCC(=NNC(=N)NN=C(CC)c1ccc(Cl)cc1)c1ccc(Cl)cc1.Cl [NCL153] | Growth |
| Cl.N#Cc1ccc(C=NNC(=N)N)cc1 [NCL031] | Growth |
| Cl.N=C(NN=Cc1ccc(F)cc1)NN=Cc1ccc(F)cc1 [NCL021] | No growth |
| CCOC(=O)N(/N=C/c1ccc(Cl)cc1)C(=N)N/N=C/c1ccc(Cl)cc1 [NCL224] | Growth |
| COc1ccc(C=NNC(=N)NN=Cc2ccc(OC)cc2)cc1.Cl [NCL027] | No growth |
| Cl.N=C(NN=Cc1cccc([N+](=O)[O-])c1)NN=Cc1cccc([N+](=O)[O-])c1 [NCL109] | Growth |
| Cl.N=C(N)NN=Cc1ccccc1F [NCL016] | Growth |
| CN(C)c1ccc(/C=N/NC(=N)N)cc1 [NCL253] | Growth |
| Cl.N=C(NN=C(CO)c1ccc(Cl)cc1)NN=C(CO)c1ccc(Cl)cc1 [NCL177] | Growth |
| Cc1ccccc1C=NNC(=O)NN=Cc1ccccc1C [NCL018] | Growth |

| SMILES | Screen at 16 μg/mL |
| --- | --- |
| Cl.N=C(NN=C(C(=O)O)c1ccccc1)NN=C(C(=O)O)c1ccccc1 [NCL167] | Growth |
| CC(=O)Nc1ccc(C=NNC(=N)NN=Cc2ccc(NC(C)=O)cc2)cc1.Cl [NCL119] | Growth |
| Cl.N=C(NN=Cc1ccc(Cl)cc1F)NN=Cc1ccc(Cl)cc1F [NCL216] | Growth |
| CCCCC(=NNC(=N)N)c1ccc(Cl)cc1.Cl [NCL188] | Growth |
| N=C(N)NN=C(CC1CCCCC1)c1ccc(Cl)cc1O [NCL237] | Growth |
| N#Cc1ccc(C=NNC(=O)NN=Cc2ccc(C#N)cc2)cc1 [NCL007] | Growth |
| Nc1nc(NN=Cc2ccccc2O)nc(NN=Cc2ccccc2O)n1 [NCL207] | Growth |
| N=C(N)NN=Cc1cccc2ccccc12 [NCL248] | Growth |
| Nc1nc(NN=Cc2cccnc2)cc(NN=Cc2cccnc2)n1 [NCL239] | Growth |
| Cl.OCC(=NNc1cc(NN=C(CO)c2ccc(Cl)cc2)ncn1)c1ccc(Cl)cc1 [NCL189] | Growth |
| Nc1nc(NN=Cc2ccccc2)cc(NN=Cc2ccccc2)n1 [NCL199] | Growth |
| CC(C)c1ccc(C=NNC(=N)NN=Cc2ccc(C(C)C)cc2)cc1.Cl [NCL120] | Growth |
| Cl.N=C(NN=Cc1cccc(Br)c1)NN=Cc1cccc(Br)c1 [NCL131] | Growth |
| Cl.N=C(N)NN=Cc1ccc(F)cc1 [NCL053] | Growth |
| N=C(N/N=C/c1ccc(-c2ccccc2)cc1)N/N=C/c1ccc(-c2ccccc2)cc1 [NCL112] | Growth |
| Cl.N=C(NN=Cc1cccc(Cl)c1)NN=Cc1cccc(Cl)c1 [NCL054] | No growth |
| CC(=NNC(=N)NN=C(C)c1c[nH]c2ccccc12)c1c[nH]c2ccccc12 [NCL268] | No growth |
| Nc1nc(NN=Cc2ccccc2)nc(NN=Cc2ccccc2)n1 [NCL214] | Growth |
| CC(=O)Nc1ccc(C=NNc2cc(NN=Cc3ccc(NC(C)=O)cc3)nc(N)n2)cc1 [NCL223] | Growth |
| Cl.N=C(NN=Cc1ccccc1Br)NN=Cc1ccccc1Br [NCL129] | Growth |
| Cc1cccc(C=NNC(=N)N)c1.Cl [NCL046] | Growth |
| Cl.Clc1ccc(/C=N/Nc2cc(N/N=C/c3ccc(Cl)cc3)ncn2)cc1 [NCL187] | Growth |
| N=C(N)NN=CC=Cc1ccccc1 [NCL249] | Growth |
| COc1ccc(C=NNC(=O)NN=Cc2ccc(OC)cc2)cc1 [NCL006] | Growth |
